From a melting point compilation (Tetko et al.; mined from patent text by program, amines drawn as free bases though some values may be those of a salt) come the findings set out here.

`CNC(=O)CCc1ccc(F)cc1F`: the melting point fell in the range of 90 to 91 °C.

For the molecule `O=[N+]([O-])c1cc(Br)ccc1NCC(F)(F)F`, the melting point lay in the range of 118 to 120 °C.

The molecule `CCN(CC1CC1)c1c([N+](=O)[O-])cc(C(F)(F)F)c(N)c1[N+](=O)[O-]` yielded a melting point of 99 to 100 °C.

`Cn1c(COc2ccc(CC3SC(=O)NC3=O)cc2)nc2ccc(Oc3ccc(CCNC(=O)Nc4ccc(F)cc4F)cc3)cc21` (configuration not stated) returned a melting point of 161 to 164 °C.

Turning to `CCCNC(=S)N1CCc2cc(S(=O)(=O)N3CC(c4ccccc4)NC3=O)ccc21` (configuration not stated), the melting point lay in the range of 222 to 224 °C.

`Cc1ccc(-c2ccc3c(c2)C=C(C(=O)Nc2ccc(CN4CCC(Cc5ccccc5)CC4)cc2)CC3)cc1` showed a melting point of 199 to 201 °C.

`O=C(NCCCOc1ccncc1)c1cccnc1`: the melting point lay in the range of 117 to 119 °C.

`NS(=O)(=O)c1ccc(-c2[nH]c3ccc(Cl)cc3c2-c2ccccc2)cc1` yielded a melting point of 297 to 299 °C.

Turning to `CN(CCCNc1ncc(Cc2cccc(Cl)c2)c(=O)[nH]1)c1ccccn1`, the melting point fell in the range of 105 to 107 °C.

With `CCOC(=O)C(=O)N(O)Cc1ccc2c(c1)OCc1ccccc1C2=O`, the melting point lay within 52 to 62 °C.

Molecule `COc1cc2c(cc1-c1ccccc1F)NC(=O)CC(c1cccc(C#N)c1)=N2` returned a melting point of 245 to 247 °C.

`CCCCCCCCCC(=O)Nc1cc(C(=O)O)ccc1C` displayed a melting point of 246 to 250 °C.

The molecule `CCN1C[C@@H](C(=O)O)N(C(=O)[C@H](C)CSC(=O)c2ccccc2)C1=O` showed a melting point of 139 to 141 °C.

In the case of `COc1ccccc1C1c2cc(NC(=O)CC(C)(C)C)c(C)c(C)c2OC1(C)C` (configuration not stated), the melting point was 169 to 170 °C.

`CN(C)c1ccc2c(c1)SSSSS2` gave a melting point of 122 °C.

`CC(=O)SCC(C)C(=O)N(CC(=O)O)c1ccccc1` (configuration not stated) returned a melting point of 94 to 94.5 °C.

In turn, `CCCCCNC(=O)N(C)c1cccc(-c2ccc(CCC(=O)O)cc2OCCOCC)c1` came in with a melting point of 61 to 62 °C.

For `O=C(Cc1cccc2ccccc12)NC1CCC2(O)C3Cc4ccc(O)c5c4C2(CCN3CC2CC2)C1O5` (configuration not stated), the melting point fell in the range of 213 to 215 °C.

Consider `O=C(O)c1cn(C2CC2)c2c(F)c(N3CCCC(n4ccnn4)C3)c(F)cc2c1=O` (configuration not stated), for which the melting point fell in the range of 239 to 240 °C.

The molecule `NC12CC=CCC1CCc1ccc(O)cc12` (configuration not stated) registered a melting point of 156 to 161 °C.

As for `O=C(COc1ccc(Cl)c(Cl)c1)Nc1cscc1C(=O)O`, the melting point was in the range of 258 to 264 °C.

Turning to `CSc1ncnn1C[C@]1(c2ccc(F)cc2F)O[C@@H]1c1ccccc1F` (relative stereo), the melting point lay within 65 to 68 °C.

Consider `CN(C(=O)CCS(C)=O)c1cnc(-c2cncc(F)c2)s1` (configuration not stated), for which the melting point lay in the range of 152 to 154 °C.

Consider `CCCC(=O)Nc1c(C)c2c(c(C(C)c3ccc(C(C)C)cc3)c1C)OCC2` (configuration not stated), for which the melting point fell in the range of 152 to 153 °C.

On to `COc1ccc(CCNC(=O)C(F)(F)F)c2ccc(=O)[nH]c12`, for which the melting point is 181 to 184 °C.

The molecule `CCCCc1ncc(/C=C(\Cc2cccs2)C(=O)O)n1Cc1ccc(C(N)=O)cc1` had a melting point of 210 to 212 °C.

Regarding `COc1ccc(OCC2NCCS2)cc1` (configuration not stated), the melting point was 54 to 55 °C.

Regarding `Cc1cccc(-c2[nH]c(C(C)C)nc2-c2cccc(-c3ccc(NC(=O)C(C)(C)O)cc3)c2)n1`, the melting point is 123 to 135 °C.

`COc1ccc2c(c1)[C@H]1CN(C)CC[C@@H]1CC2=O` (relative stereo): the melting point was over 250 °C.

The molecule `CCCc1nc2c(N)nc3cccnc3c2s1` registered a melting point of 135 to 136 °C.

On to `Fc1ccccc1C1CCC(=S)Nc2ccc(Cl)cc21` (configuration not stated), for which the melting point is 190 °C.

The molecule `Cc1c(C(F)(F)C(F)(F)F)oc2c(C=O)cccc12` displayed a melting point of 78 °C.

For `O=C(O)CSc1nc(-c2ccc(Cl)cc2)no1`, the melting point lay in the range of 112 to 114 °C.

As for `N=C(Nc1ccc(CCN)cc1)c1cccs1`, the melting point was in the range of 134 to 137 °C.

Molecule `COc1ccc(CC(SC)C(=O)OCc2ccccc2)cc1C(=O)NCc1ccc(C(F)(F)F)cc1` (configuration not stated) gave a melting point of 77 to 79 °C.

The molecule `Cc1ncc(-c2ccc([C@H](C)N3CC[C@](CCCO)(c4ccc(F)cc4)OC3=O)cc2)cn1` gave a melting point of 166 to 168 °C.

Molecule `O=C1CCC(c2ccccc2)(N2CCOCC2)CC1` had a melting point of 116 to 119 °C.

The molecule `Cc1oc(C(N)=O)c(C)c1-c1nc2ccc(Oc3ccccc3)cc2[nH]1` had a melting point of 248 to 251 °C.

The molecule `CCCNC(=O)Nc1c(C(=O)c2ccccc2)[nH]c2cc(Cl)ccc12` displayed a melting point of 234 to 236 °C.

In turn, `COc1ccccc1Sc1c(O)cc(-c2ccccc2)oc1=O` yielded a melting point of 208 to 209 °C.

As to `O=C1CC(O)CC(/C=C/c2ccc(Cl)c(Cl)c2)O1` (configuration not stated), the melting point lay within 92 to 94 °C.

`FC(F)(F)c1cccc(Nc2ncnc(NCc3ccco3)n2)c1` came in with a melting point of 207 to 209 °C.

With `CC#CCOc1cc2c(cc1CCC)OCO2`, the melting point was 39 to 40 °C.

Molecule `N#CCC(=O)NNC(=O)Nc1ccsc1CC(=O)Oc1ccc([N+](=O)[O-])cc1` yielded a melting point of 132 to 135 °C.

The molecule `CCOC(=O)C1=C(C)Nc2ccnc(OC(C)C)c2C1c1ccccn1` (configuration not stated) gave a melting point of 191 to 193 °C.

As to `CC(=C1SCCCS1)c1cccnc1`, the melting point was 34 to 36 °C.

`COC(=O)C=Cc1cc(C(=O)O)ccc1NC(=O)NC(=O)c1cc(F)c(F)cc1Cl` returned a melting point of 99 °C.

`O=C(OCc1ccccc1)C1=C(c2ccccc2)C(c2ccccc2)OC1=O` (configuration not stated): the melting point fell in the range of 111 to 114 °C.

The molecule `CS(=O)(=O)CCNC(=O)c1ccc(-c2ccc3cnc(Nc4ccc(N5CCOCC5)cc4)nn23)cc1` yielded a melting point of 241 to 242 °C.

`CCCCOCCOc1ccc(-c2ccc3c(c2)C=C(C(=O)Nc2ccc(CP4(=O)OCCCO4)cc2)CCS3(=O)=O)cc1` gave a melting point of 222 to 223 °C.

The molecule `CC1(C)Nc2ccc(Cl)cc2N(C2CC2)C1=O` yielded a melting point of 132 to 133 °C.

In turn, `COc1cccc(OCCCc2cn(-c3ccc(C(F)(F)F)cn3)nc2C(C)C)c1CC(=O)O` registered a melting point of 183 to 184 °C.

For `CCN(CC)c1ccc2c(c1)Cc1c-2[nH]c2ccccc12`, the melting point lay within 204 to 206 °C.

For the molecule `CCCCCCCCCCCCCCCCCCS(=O)(=O)c1cc(C(=O)O)c([N+](=O)[O-])c(C(=O)O)c1`, the melting point is 203 to 205 °C.

As to `COc1cc(CC(=O)N[C@@H](COC(=O)C(C)(C)C)Cc2ccccc2)ccc1OCCN`, the melting point is 70 to 74 °C.

Turning to `O=c1c(CO)csc2ccc3ccccc3c12`, the melting point lay in the range of 158 to 159 °C.

As to `CSc1ccc(S(=O)(=O)N2CCCC2=O)cc1`, the melting point fell in the range of 123 to 125 °C.

`CC(=O)N(C(=O)C1=NN(c2ccc(Cl)cc2)C(c2ccc(Cl)cc2)C1)c1ccc(C(F)(F)F)cc1` (configuration not stated) came in with a melting point of 158 to 160 °C.

For `CC1(C)CCC(=O)Nc2cc(Nc3ncc(Cl)c(Nc4ccc(N5CCOCC5)cc4OCCC#N)n3)ccc21`, the melting point is 150 to 156 °C.

For `CCOC(=O)c1[nH]c2cccnc2c1-c1ccc([N+](=O)[O-])cc1`, the melting point fell in the range of 234 to 236 °C.

`CN1C(=O)C(Br)=C(c2cn(S(=O)(=O)c3ccccc3)c3ncccc23)C1=O`: the melting point came out at 198 °C.

`Cn1ncc(C(=O)Nc2ccc(-n3nc(C(F)(F)F)cc3C(F)(F)F)cc2)c1[N+](=O)[O-]`: the melting point lay within 214 to 216 °C.

Consider `NC(=O)c1ccnc(-c2ccc(Oc3ccc(F)cc3)cc2)n1`, for which the melting point fell in the range of 195 to 197 °C.

In turn, `Cn1nnnc1SCCCS(=O)(=O)c1ccccn1` registered a melting point of 98.5 to 101 °C.

Take `Cc1cc(Nc2nccc(-c3sc(N)nc3C)n2)ccc1N1CCCCC1`: the melting point fell in the range of 221 to 223 °C.

Take `CCOC(=O)CN(C#N)Cc1cc(-n2cc(C)nc2C)cc(C)c1N`: the melting point lay within 135 to 140 °C.

Regarding `C#CCNc1nc(NCC=C)nc2c(C)csc12`, the melting point was in the range of 95 to 96 °C.

Molecule `CCn1c(=O)ccn(-c2ccc(N3CCN(c4ccc(OC)cc4)CC3)cc2)c1=O` gave a melting point of 210 °C.

In turn, `Cc1nc(C23CC4CC(CC(C4)C2)C3)oc1COC(=O)C(C)(C)O` yielded a melting point of 68 to 70 °C.

Molecule `CCOC(=O)c1sc(C)c2c1CCCC2=O` gave a melting point of 76 to 77 °C.

Molecule `CCCCc1cc2c(N=C3SC[C@@H]4Cc5ccccc5CN34)cccc2cn1` returned a melting point of 82 °C.

Take `CCOC(=O)NC(=O)C(c1cccc(C)c1)c1ncc(C(F)(F)F)cc1Cl` (configuration not stated): the melting point lay in the range of 146 to 147 °C.

For `Cc1nc2c(n1C1CC1)CCCC2=O`, the melting point worked out at 132 °C.

Consider `Fc1cccc(F)c1-c1ncc(-c2ccc(Br)cc2)cn1`, for which the melting point is 193 to 194 °C.

The molecule `C=CCn1c2c(ccc1=O)C(NCCc1ccccc1)CCC2` (configuration not stated) had a melting point of 60 to 62 °C.

In turn, `O=C(NCCCCCCOC(=O)N1CCC(OC(=O)Oc2ccc([N+](=O)[O-])cc2)CC1)Oc1ccc(Oc2ccccc2)cc1` gave a melting point of 93 to 94 °C.

`Cc1c(C)c2c(c(C)c1O)SC(CCCO)O2` (configuration not stated) registered a melting point of 116 to 117 °C.

In the case of `CSC1=Nc2ccccc2C(c2ccccc2)=NC1`, the melting point is 167 to 168 °C.

Molecule `CCCCOCCOc1ccc(-c2ccc3c(c2)C=C(C(=O)Nc2ccc(SCc4n[nH]c(=O)n4CCC)cc2)CCN3CC(C)C)cc1` gave a melting point of 98 to 101 °C.

Regarding `COc1ccccc1OCCN(Cc1ccccc1)C(=O)CCc1c[nH]c2ccccc12`, the melting point was 46.5 to 47.5 °C.

Turning to `Cc1nc(-c2ncn3c2c(C)nc2ccccc23)no1`, the melting point was 192 to 193 °C.

Consider `COCC1CN(Cc2cc(OC)c(OC)c(OC)c2)CCN1C(=O)c1cn2ccccc2n1` (configuration not stated), for which the melting point lay within 129 to 130 °C.

`CCOC(=O)Cc1ccc(NC(=O)CCc2cnoc2-c2ccc(Cl)cc2)cc1` yielded a melting point of 117 to 118 °C.

On to `CN1C(=O)C2(COc3cc4c(cc32)CCO4)c2ccccc21` (configuration not stated), for which the melting point was 187 to 190 °C.

The molecule `CCOC(=O)Oc1ccc(C=CC(=O)N2CCN(CC(=O)N3CCCC3)CC2)cc1` yielded a melting point of 128 to 130 °C.

The molecule `O=C(c1ccc(Cl)cc1)c1cc(Cl)cc2c1OCC2C(=O)O` (configuration not stated) returned a melting point of 161 to 163 °C.

As to `COC(=O)c1nc(-c2ccc(Cl)c(S(C)=O)c2F)nc(N)c1Cl` (configuration not stated), the melting point lay within 256 to 258 °C.
